For assay [1], the target named is bromo domain of SMARCA4 protein (Homo sapiens (Human), UniProt P40337+P51532). As to the kind of experiment: SMARCA4 bromodomain ternary binding TR-FRET assay (with VCB). Conditions: with saturating VCB (5 μM); read-out: IC50 (SM4_T) ternary binding potency in SMARCA4 FRET assay. As for the experimental part: Recombinant bromo domain of SMARCA4 protein, was purchased from Active Motif (31401). The inhibitory activity of compounds was evaluated in vitro using TR-FRET assay with white 384-well low volume microplate (PerkinElmer ProxiPlate Plus), in which the compound competes the same binding site with the ligand, and thus lead to dose-dependent TR-FRET signal reduction. The cooperativity of the compounds for ternary complex formation with E3 ligase was evaluated in the absence or presence of saturating concentrations of VCB. Testing compounds were dissolved in DMSO at 10 mM and tested in 9-point IC50 mode. The assay mixture was prepared by mixing SMARCA4 (20 nM final), biotinylated probe (25 nM final), and assay buffer or VCB (5 μM) in 1×AlphaLISA Epigenetics Buffer (PerkinElmer AL008F) with 1 mM TCEP. The compounds of interest in DMSO were added to each well in 3-fold serial dilution by dispenser (TECAN D300E). and incubate for 20 minutes at room temperature before addition of detection reagents, Lance Eu W1024 anti-6×His (0.6 nM final, PerkinElmer AD0110) and Streptavidin Surelight APC (6 nM final, PerkinElmer CR130-100). The plate was then sealed and further incubated at 4° C. overnight in dark, and then was read by Envision multimode plate reader (PerkinElmer, 2102-0010). The ratio of florescence signal at 665/620 was used in data analysis. Percentage inhibition was calculated by % inhibition=100×(FDMSO-F)/(FDMSO-FPC), in which FDMSO is DMSO control, and FPC is positive control. IC50 values were determined from dose response curve by fitting the percent inhibition against compound concentration using GraphPad Prism software.
(In general: TR-FRET usually uses a lanthanide donor and a delayed reading to cut background.)

Assay [2] addresses T1, SMARCA2 (Homo sapiens (Human), UniProt P51531). As to the kind of experiment: In Cell Western SMARCA2 degradation in NCIH520 cells. Format: cell-based. Conditions: for DC50: read-out: DC50 (SM2_H520) SMARCA2 degradation potency. As for the experimental part: (§1) Compound titration and cell culture: Compounds were dissolved in DMSO to make 10 mM stock and 3-fold series dilutions were further conducted keeping the highest concentration 10 μM. NCIH1693 and NCIH520 cells were maintained in PRMI 1640 medium (Corning Cellgro, Catalog #:10-040-CV) supplemented with 10% v/v FBS (GE Healthcare, Catalog #: SH30910.03) by splitting 1:3 twice a week.
(§2) To determine SMACRA2 and SMARCA4 protein degradation DC50 values in NCIH1693 and NCIH520 cells by In Cell Western (ICW) analysis. Cells were trypsinized and 30 thousand cells/well were seeded into 384-well plates and were allowed to grow for 5 hours at 37° C. Eight-point, 3-fold serial dilutions of compounds from 10 mM stocks were added to the cells (using digital Dispenser D300-Tecan, keeping highest concentration 10 μM and normalizing with DMSO at the highest dispensed volume). Plates were incubated at 37° C. for overnight (maximum 18 hours). Cells incubated with DMSO was used as a vehicle control.
(§3) To perform In Cell Western, medium was removed from all the wells leaving cells attached to the surface. After removing the medium, cells were fixed within the plates with 40 μL of 4% formaldehyde by incubating at room temperature for 30 minutes, and then permeabilized with wash buffer (1×PBS with 0.1% Triton X-100) by washing the plate 5 times with 50 μL/well. Before labeling with primary antibodies, cells were blocked with 30 μL/well of blocking buffer (Licor Odyssey blocking buffer PBS #927-40000) for 30 minutes at room temperature. To measure SMARCA2 or SMARCA4 proteins, cells were labeled with 20 μL/well of anti SMARCA2 or SMACRA4 antibodies (Cell Signaling BRM #11966S 1:1000, Cell Signaling BRG #49360S 1:1000) diluted in Li-Cor Odyssey blocking buffer-PBS #927-40000, followed by overnight incubation at 4° C.
(§4) The next day, plates were washed 5×5 minutes with 50 μL/well of washing buffer to remove all the excess primary antibody and then 20 μL from a mixture of secondary antibody and fluorescent DNA specific dye (Goat anti rabbit 1:500 IRDye-800CW #92632211, and DRAQ5™ 1:2000-#ab108410) was added to each well. Plates were incubated for 1 hour at room temperature with gentle rocking. Cells were washed 5 times with 50 μL/well wash buffer, followed by one last wash with DI water, followed by 10 mins drying at 37° C. oven before scanning. Plates were scanned using Li-Cor Odyssey CLx imaging system to acquire integrated intensities at 700 nm and 800 nm. SMARCA signals were normalized to total cell count and then these normalized values were used to calculate the percent degradation relative to DMSO control and maximum inhibition. DC50s were calculated by using the GraphPad Prism4 program based on sigmoidal dose response equation ([Inhibitor] vs. normalized response−Variable slope).

For another assay, the target named is SMARCA4 (Homo sapiens (Human), UniProt P51532). As to the kind of experiment: In Cell Western SMARCA4 degradation in NCIH520 cells. Format: cell-based. Conditions: for DC50: read-out: DC50 (SM4_H520) SMARCA4 degradation potency. As for the experimental part:
as §1, §2, §3, §4

Assay [3] addresses T1, SMARCA2. Description: In Cell Western SMARCA2 degradation in NCIH1693 cells. The assay is classed as cell-based. Conditions: for DC50: read-out: DC50 (SM2_H1693) SMARCA2 degradation potency; for Dmax: NCI-H1693, overnight, read-out: Dmax % (SM2_H1693) maximum SMARCA2 degradation within the concentrations tested. Here is the method:
as §1, §2, §3, §4

Another assay deals with NCIH1693 cells. As to the kind of experiment: Cell proliferation assay (ATPlite) in NCIH1693 cells. The assay is classed as cell-based. Particulars: H1693 cells, day 4; read-out: IC50 (PRO_H1693) antiproliferation potency. Here is the method: One thousand NCIH1693 or NCIH1703 cells per well were seeded in 96 well plate and incubated at 37° C. for 5 hrs. A series of three-fold dilution of compounds from 10 mM stock concentration were added to the cells by using digital Dispenser D300-Tecan, keeping highest concentration 10 μM and normalizing with DMSO at the highest dispensed volume). Cells incubated with DMSO was used as a vehicle control. After compound treatment plates were incubated at 37° C. for 4 days and cell viability was measured by measuring ATP content from the cell lysate using ATPlite Luminescence assay system (PerkinElmer Cat. no #6016941). Percentage of viable cells, relative to DMSO vehicle control and maximum inhibition, was calculated and plotted in Graphpad Prism ([Inhibitor] vs. normalized response−Variable slope) to determine cell proliferation IC50 values on day 4.

Bounds are passed on as bounds.

T1 sequence (P51531 whole entry): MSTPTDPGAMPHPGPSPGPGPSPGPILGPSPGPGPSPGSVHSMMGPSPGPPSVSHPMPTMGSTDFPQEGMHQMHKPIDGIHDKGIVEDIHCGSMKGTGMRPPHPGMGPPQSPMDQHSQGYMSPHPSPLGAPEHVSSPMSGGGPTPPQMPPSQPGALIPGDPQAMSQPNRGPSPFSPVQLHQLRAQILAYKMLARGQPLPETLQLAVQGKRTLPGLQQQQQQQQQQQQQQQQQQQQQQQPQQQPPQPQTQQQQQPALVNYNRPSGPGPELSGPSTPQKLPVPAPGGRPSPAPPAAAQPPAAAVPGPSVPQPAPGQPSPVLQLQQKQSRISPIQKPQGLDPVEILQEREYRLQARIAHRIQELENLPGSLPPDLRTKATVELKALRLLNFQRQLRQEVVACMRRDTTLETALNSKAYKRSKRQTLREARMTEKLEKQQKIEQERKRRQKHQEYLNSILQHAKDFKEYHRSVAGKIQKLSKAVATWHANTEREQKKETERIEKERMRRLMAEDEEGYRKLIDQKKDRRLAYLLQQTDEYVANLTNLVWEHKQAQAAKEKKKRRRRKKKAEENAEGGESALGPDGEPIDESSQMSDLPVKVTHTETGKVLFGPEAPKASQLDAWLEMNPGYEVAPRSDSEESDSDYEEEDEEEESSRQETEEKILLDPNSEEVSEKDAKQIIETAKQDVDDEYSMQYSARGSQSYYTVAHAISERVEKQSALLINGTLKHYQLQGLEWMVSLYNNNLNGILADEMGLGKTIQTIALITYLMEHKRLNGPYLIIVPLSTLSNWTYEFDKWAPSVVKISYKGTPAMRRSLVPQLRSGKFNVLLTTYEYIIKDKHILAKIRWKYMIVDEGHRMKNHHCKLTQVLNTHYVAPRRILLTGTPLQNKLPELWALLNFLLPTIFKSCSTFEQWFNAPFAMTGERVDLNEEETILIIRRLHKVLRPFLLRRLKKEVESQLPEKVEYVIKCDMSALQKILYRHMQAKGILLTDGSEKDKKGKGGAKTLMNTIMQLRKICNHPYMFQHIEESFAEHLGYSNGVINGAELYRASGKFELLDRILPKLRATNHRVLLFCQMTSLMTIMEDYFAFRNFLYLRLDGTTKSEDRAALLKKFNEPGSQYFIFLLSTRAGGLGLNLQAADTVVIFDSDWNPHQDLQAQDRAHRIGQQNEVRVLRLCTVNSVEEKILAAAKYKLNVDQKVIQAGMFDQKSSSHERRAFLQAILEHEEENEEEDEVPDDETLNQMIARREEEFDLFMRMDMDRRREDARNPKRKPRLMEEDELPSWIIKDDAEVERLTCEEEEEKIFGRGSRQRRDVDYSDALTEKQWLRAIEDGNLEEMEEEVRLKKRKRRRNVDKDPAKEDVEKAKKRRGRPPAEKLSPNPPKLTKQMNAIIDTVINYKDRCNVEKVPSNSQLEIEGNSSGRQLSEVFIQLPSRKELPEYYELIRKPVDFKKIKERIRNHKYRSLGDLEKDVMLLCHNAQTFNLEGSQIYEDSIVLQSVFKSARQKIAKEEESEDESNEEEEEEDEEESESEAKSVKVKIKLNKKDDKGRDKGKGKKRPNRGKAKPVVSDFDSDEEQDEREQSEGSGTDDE
Chain of SMARCA4 (P51532 whole entry): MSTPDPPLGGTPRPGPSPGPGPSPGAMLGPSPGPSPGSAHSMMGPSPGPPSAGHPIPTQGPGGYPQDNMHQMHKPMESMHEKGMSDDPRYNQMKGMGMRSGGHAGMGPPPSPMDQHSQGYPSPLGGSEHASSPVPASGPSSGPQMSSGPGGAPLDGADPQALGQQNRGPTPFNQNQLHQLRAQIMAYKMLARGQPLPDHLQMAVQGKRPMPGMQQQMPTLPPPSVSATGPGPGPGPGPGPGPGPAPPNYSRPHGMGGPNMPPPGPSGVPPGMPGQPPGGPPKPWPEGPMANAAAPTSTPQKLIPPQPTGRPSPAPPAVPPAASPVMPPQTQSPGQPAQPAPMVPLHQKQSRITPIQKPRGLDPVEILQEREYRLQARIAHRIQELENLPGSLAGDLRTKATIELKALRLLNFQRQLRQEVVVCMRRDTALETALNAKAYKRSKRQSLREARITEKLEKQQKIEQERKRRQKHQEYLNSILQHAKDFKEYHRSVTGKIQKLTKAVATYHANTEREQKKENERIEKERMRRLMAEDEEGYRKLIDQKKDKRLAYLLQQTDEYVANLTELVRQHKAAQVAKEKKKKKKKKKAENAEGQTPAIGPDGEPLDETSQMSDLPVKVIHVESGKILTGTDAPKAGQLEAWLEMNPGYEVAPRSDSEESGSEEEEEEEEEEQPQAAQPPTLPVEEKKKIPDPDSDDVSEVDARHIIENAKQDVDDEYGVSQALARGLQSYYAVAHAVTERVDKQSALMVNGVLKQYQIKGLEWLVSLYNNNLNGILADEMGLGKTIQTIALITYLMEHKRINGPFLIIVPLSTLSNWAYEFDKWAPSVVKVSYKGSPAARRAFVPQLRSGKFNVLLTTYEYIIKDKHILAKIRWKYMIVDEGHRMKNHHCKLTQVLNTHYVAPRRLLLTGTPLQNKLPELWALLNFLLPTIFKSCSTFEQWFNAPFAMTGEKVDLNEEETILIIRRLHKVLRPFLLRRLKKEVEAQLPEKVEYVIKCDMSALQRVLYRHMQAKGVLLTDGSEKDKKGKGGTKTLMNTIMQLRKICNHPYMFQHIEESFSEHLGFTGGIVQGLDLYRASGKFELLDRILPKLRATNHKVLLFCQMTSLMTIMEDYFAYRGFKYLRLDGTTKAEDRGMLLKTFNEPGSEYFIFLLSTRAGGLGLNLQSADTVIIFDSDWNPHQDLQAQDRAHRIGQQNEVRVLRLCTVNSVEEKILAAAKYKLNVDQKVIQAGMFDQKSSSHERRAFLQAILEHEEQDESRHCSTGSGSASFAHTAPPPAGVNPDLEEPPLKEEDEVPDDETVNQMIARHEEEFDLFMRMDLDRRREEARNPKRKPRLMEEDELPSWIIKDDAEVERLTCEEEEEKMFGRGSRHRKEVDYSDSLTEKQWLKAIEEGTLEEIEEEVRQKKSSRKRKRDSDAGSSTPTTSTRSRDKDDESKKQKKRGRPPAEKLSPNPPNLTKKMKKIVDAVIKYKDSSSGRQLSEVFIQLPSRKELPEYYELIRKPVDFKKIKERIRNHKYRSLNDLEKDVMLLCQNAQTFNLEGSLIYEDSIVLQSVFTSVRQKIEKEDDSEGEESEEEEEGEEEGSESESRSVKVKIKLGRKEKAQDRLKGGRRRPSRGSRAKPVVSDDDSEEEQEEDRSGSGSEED
Chain of bromo domain of SMARCA4 protein (P51532 whole entry, looked up, the tested form may be a part): as the sequence (P51532 whole entry) above
Chain of bromo domain of SMARCA4 protein (P40337 whole entry, looked up, the tested form may be a part): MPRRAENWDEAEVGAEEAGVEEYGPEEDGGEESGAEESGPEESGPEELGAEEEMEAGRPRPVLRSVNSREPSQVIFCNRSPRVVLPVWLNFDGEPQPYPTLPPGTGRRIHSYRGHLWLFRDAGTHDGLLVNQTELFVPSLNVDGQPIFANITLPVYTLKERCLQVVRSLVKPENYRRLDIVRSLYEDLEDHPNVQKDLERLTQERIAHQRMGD
Chain of bromo domain of SMARCA4 protein (Q15370 whole entry partner, looked up, the tested form may be a part): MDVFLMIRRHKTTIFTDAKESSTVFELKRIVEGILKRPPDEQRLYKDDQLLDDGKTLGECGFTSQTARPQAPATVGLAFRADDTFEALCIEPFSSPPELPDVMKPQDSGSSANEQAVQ
Chain of bromo domain of SMARCA4 protein (Q15369 whole entry partner, looked up, the tested form may be a part): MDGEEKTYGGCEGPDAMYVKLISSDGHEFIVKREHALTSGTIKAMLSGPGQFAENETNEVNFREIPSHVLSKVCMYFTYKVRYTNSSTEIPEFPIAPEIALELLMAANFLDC

On to `Cc1ncsc1-c1ccc([C@H](C)NC(=O)[C@@H]2C[C@@H](O)CN2C(=O)[C@@H](NC(=O)CN2CCN3c4cc(-c5ccccc5O)nnc4NCC3C2)C(C)(C)C)cc1` (single isomer, unassigned) [Example 1b], for which the IC50 in assay [1] was < 100 nM; in the assay on NCIH1693 cells it was 100 to 1000 nM. Further, the 50% degradation concentration (DC50) (in general, the midpoint of the concentration-degradation curve) was 100 to 1000 nM at SMARCA2 [2] (H520 cells, overnight); 100 to 1000 nM at SMARCA4 (H520 cells, overnight); < 100 nM at SMARCA2 [3] (H1693 cells, overnight). Besides, on SMARCA2 [3], the Dmax was > 75%.
As to `Cc1scnc1-c1ccc(CNC(=O)[C@@H]2C[C@@H](O)CN2C(=O)[C@@H](NC(=O)CN2CCN3c4cc(-c5ccccc5O)nnc4NCC3C2)C(C)(C)C)cc1` (single isomer, unassigned) [Example 2a], the IC50 (in assay [1]; in the assay with NCIH1693 cells) was 100 to 1000 nM throughout. The half-maximal degradation concentration (DC50) on SMARCA2 [2] (H520 cells, overnight) lay in the range of 100 to 1000 nM; on SMARCA4 (H520 cells, overnight), 1000 to 10000 nM; on SMARCA2 [3] (H1693 cells, overnight), 100 to 1000 nM. The Dmax on SMARCA2 [2] (NCI-H520, overnight, read-out: Dmax % (SM2_H520) maximum SMARCA2 degradation within the concentrations tested) is > 75%; on SMARCA4 (NCI-H520, overnight, read-out: Dmax % (SM4_H520) maximum SMARCA4 degradation within the concentrations tested) it was 50 to 75%; at SMARCA2 [3], > 75%.
As to `Cc1scnc1-c1ccc(CNC(=O)[C@@H]2C[C@@H](O)CN2C(=O)[C@@H](NC(=O)CN2CCN3c4cc(-c5ccccc5O)nnc4NCC3C2)C(C)(C)C)cc1` (single isomer, unassigned) [Example 2b], the IC50 in assay [1] is < 100 nM. On SMARCA2 [2] (H520 cells, overnight), the “Dmax % (SM2_H520) maximum SMARCA2 degradation within the concentrations tested” value is given as “A (A = Dmax > 75%)” and the DC50 lay within 1000 to 10000 nM. Also, on SMARCA4 (H520 cells, overnight), the “Dmax % (SM4_H520) maximum SMARCA4 degradation within the concentrations tested” value is “C (C = Dmax <= 50%)” and the DC50 was ≥ 10000 nM. Moreover, on SMARCA2 [3] (H1693 cells, overnight), the “Dmax % (SM2_H1693) maximum SMARCA2 degradation within the concentrations tested” value is listed as “A (A = Dmax > 75%)” and the 50% degradation concentration (DC50) lay in the range of 1000 to 10000 nM. In the assay with NCIH1693 cells, the IC50 is 1000 to 10000 nM.

Values taken from patent US20240018158A1, “BRM TARGETING COMPOUNDS AND ASSOCIATED METHODS OF USE” (Prelude Therapeutics Incorporated, priority 2020, published 2024).
